Target: T1, Edg-1/S1P1 receptor (Homo sapiens, UniProt P21453)
T1 construct: expressed in transfected cells; host or cells: human osteogenic sarcoma U2OS cells: Edg-1 Transfluor U2OS WT Clone #37 (assay I), Edg-1 Transfluor U2OS Clone #3 (assay II)
Test: In vitro cell based receptor activation assay - Transfluor assay (assay I or II; beta-arrestin GFP relocalization after S1P stimulation)
Conditions: for inhibition at 3.5 µM: at 3.50 μM (titrated from top concentration 10 μM)
Outline: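 U2OS cells overexpressing S1P1 with a beta-arrestin-GFP construct were pre-incubated with compound for 15 min at room temperature, then stimulated with S1P for 45 min at 37 °C. In assay I, final S1P was 375 nM or 750 nM and compound was a 9-point 3-fold series from 100 μM, in 1% DMSO. Cells were fixed and Hoechst-stained, GFP relocalization was imaged, and EC50 values were fitted.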

[1] = at 3.70 μM (titrated from top concentration 100 μM)

T1 sequence (P21453 whole entry): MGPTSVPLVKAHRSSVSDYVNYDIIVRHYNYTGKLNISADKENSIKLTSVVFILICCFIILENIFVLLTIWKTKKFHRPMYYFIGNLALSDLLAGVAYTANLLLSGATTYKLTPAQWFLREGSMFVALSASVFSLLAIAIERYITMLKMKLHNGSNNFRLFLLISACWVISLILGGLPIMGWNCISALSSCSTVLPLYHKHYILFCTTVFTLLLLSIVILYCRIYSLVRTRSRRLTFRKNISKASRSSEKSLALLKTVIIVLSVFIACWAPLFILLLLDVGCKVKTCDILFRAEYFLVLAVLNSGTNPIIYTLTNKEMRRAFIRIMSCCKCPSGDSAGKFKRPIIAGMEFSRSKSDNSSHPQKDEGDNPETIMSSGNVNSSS

## CCn1c(C(C)NS(=O)(=O)c2ccc(Cl)cc2)nc2ccc(Cl)cc21 (centres unmarked) [Example 10, 4-Chloro-N-[1-(6-chloro-1-ethyl-1H-benzimidazol-2-yl)ethyl]benzenesulfonamide]
[1]
  inhibition at 3.7 µM: 89.9%

## CCn1c(C2(NS(=O)(=O)c3ccc(Cl)cc3)CC2)nc2ccc(C(F)(F)F)cc21 [Example 142, 4-Chloro-N-{1-[1-ethyl-6-(trifluoromethyl)-1H-benzimidazol-2-yl]cyclopropyl}benzenesulfon amide]
  inhibition at 3.5 µM: 80.5%

## CCn1c(C(C)NS(=O)(=O)c2ccc(Cl)cc2)nc2ccc(C(F)(F)F)cc21 (centres unmarked) [Example 99, 4-Chloro-N-{1-[1-ethyl-6-(trifluoromethyl)-1H-benzimidazol-2-yl]ethyl}benzenesulfonamide]
[1]
  inhibition at 3.7 µM: 94.5%

## CCn1c([C@@H](C)NS(=O)(=O)c2ccc(F)c(CN)c2)nc2ccc(C(F)(F)F)cc21 [Example 134, 3-(Aminomethyl)-N-[(1R)-1-[1-ethyl-6-(trifluoromethyl)-1H-benzimidazol-2-yl]ethyl]-4-fluorobenzenesulfonamide]
  inhibition at 3.5 µM: 95%

## CCn1c(C(C)(C)NS(=O)(=O)c2ccc(C#N)cc2)nc2cnc(C(F)(F)F)cc21 [Example 154, 4-Cyano-N-(2-(1-ethyl-6-(trifluoromethyl)-1H-imidazo[4,5-c]pyridin-2-yl)propan-2-yl)benzenesulfonamide]
  inhibition at 3.5 µM: 77.3%

## CCn1c([C@@H](C)NS(=O)(=O)c2cnc(NC(C)=O)s2)nc2ccc(C(F)(F)F)cc21 [Example 36, N-{5-[({(1R)-1-[1-Ethyl-6-(trifluoromethyl)-1H-benzimidazol-2-yl]ethyl}amino)sulfonyl]-1,3-thiazol-2-yl}acetamide]
[1]
  inhibition at 3.7 µM: 49%

## CC(NS(=O)(=O)c1ccc(Cl)cc1)c1nc2ccccc2n1C (centres unmarked) [Example 8, 4-Chloro-N-[1-(1-methyl-1H-benzimidazol-2-yl)ethyl]-benzenesulfonamide]
[1]
  inhibition at 3.7 µM: 91.2%

## CCn1c([C@@H](C)NS(=O)(=O)c2ccc(C#N)cc2)nc2cnc(C3CC3)cc21 (stereo in doubt) [Example 183, 4-Cyano-N-[1-(6-cyclopropyl-1-ethyl-1H-imidazo[4,5-c]pyridin-2-yl)-ethyl]-benzenesulfonamide]
  inhibition at 3.5 µM: 83.4%

## CCn1c([C@@H](C)NS(=O)(=O)c2ccc(NN)nc2)nc2ccc(C(F)(F)F)cc21 [Example 168, (R)—N-(1-(1-ethyl-6-(trifluoromethyl)-1H-benzo[d]imidazol-2-yl)ethyl)-6-hydrazinylpyridine-3-sulfonamide]
  inhibition at 3.5 µM: 77.1%

## CCn1c([C@@H](C)NS(=O)(=O)c2ccc3c(c2)OCCO3)nc2ccc(C(F)(F)F)cc21 [Example 44, N-{(1R)-1-[1-Ethyl-6-(trifluoromethyl)-1H-benzimidazol-2-yl]ethyl}-2,3-dihydro-1,4-benzodioxine-6-sulfonamide]
  inhibition at 3.5 µM: 93.9%

## 4-Chloro-N-{1-[1-ethyl-6-(methylsulfonyl)-1H-benzimidazol-2-yl]ethyl}benzenesulfonamide [Example 80]
[1]
  % inhibition: [drawing 92] 4-Chloro-N-{1-[1-ethyl-6- (methylsulfonyl)-1H- benzimidazol-2-yl]ethyl}benzenesulfonamide (22.57% inhibition at 3.70 μM)

## CCn1c([C@@H](C)NS(=O)(=O)c2ccc(Cl)cc2)nc2cc(C)c(Cl)cc21 [Example 59, 4-Chloro-N-[(1R)-1-(6-chloro-1-ethyl-5-methyl-1H-benzimidazol-2-yl)ethyl]benzenesulfonamide]
[1]
  inhibition at 3.7 µM: 78.2%

## CCn1c([C@@H](C)NS(=O)(=O)c2ccc(C#N)cc2)nc2cnc(C(F)(F)F)cc21 [Example 146, (R)-4-Cyano-N-(1-(1-ethyl-6-(trifluoromethyl)-1H-imidazo[4,5-c]pyridin-2-yl)ethyl)benzenesulfonamide]
  inhibition at 3.5 µM: 91.8%

## CCn1c([C@@H](C)NS(=O)(=O)c2ccc(C#N)cc2)nc2cnccc21 [Example 103, 4-Cyano-N-[(1R)-1-(1-ethyl-1H-imidazol[4,5-c]pyridin-2-yl)ethyl]benzenesulfonamide]
  inhibition at 3.5 µM: 89.4%

## CCn1c([C@@H](C)NS(=O)(=O)c2ccc(C(N)=O)nc2)nc2cnc(C(F)(F)F)cc21 [Example 149, (R)-5-(N-(1-(1-Ethyl-6-(trifluoromethyl)-1H-imidazo[4,5-c]pyridin-2-yl)ethyl)sulfamoyl)picolinamide]
  inhibition at 3.5 µM: 93.3%

## CCn1c([C@@H](C)NS(=O)(=O)c2ccc(Cl)cc2)nc2cc(F)c(Cl)cc21 [Example 56, 4-Chloro-N-[(1R)-1-(6-chloro-1-ethyl-5-fluoro-1H-benzimidazol-2-yl)ethyl]benzenesulfonamide]
  inhibition at 3.5 µM: 96%

## CCn1c([C@@H](C)NS(=O)(=O)c2ccc(Cl)cc2)nc2cccc(Cl)c21 [Example 86, (R)-4-Chloro-N-[1-(7-chloro-1-ethyl-1H-benzoimidazol-2-yl)ethyl]-benzenesulfonamide]
[1]
  inhibition at 3.7 µM: 51.7%

## CCn1c([C@@H](C)NS(=O)(=O)c2ccc(C(N)=O)n2C)nc2ccc(C(F)(F)F)cc21 [Example 158, (R)-5-(N-(1-(1-Ethyl-6-(trifluoromethyl)-1H-benzo[d]imidazol-2-yl)ethyl)sulfamoyl)-1-methyl-1H-pyrrole-2-carboxamide]
  inhibition at 3.5 µM: 93.6%

## CCn1c([C@@H](C)NS(=O)(=O)c2ccc(C#N)nc2)nc2cnc(OC)cc21 [Example 151, (R)-6-Cyano-N-(1-(1-ethyl-6-methoxy-1H-imidazo[4,5-c]pyridin-2-yl)ethyl)pyridine-3-sulfonamide]
  inhibition at 3.5 µM: 91.7%

## CCn1c([C@@H](C)NS(=O)(=O)c2ccc(C(N)=O)nc2)nc2cnc(C3CC3)cc21 [Example 174, 5-[1-(6-Cyclopropyl-1-ethyl-1H-imidazo[4,5-c]pyridin-2-yl)-ethylsulfamoyl]-pyridine-2-carboxylic acid amide]
  inhibition at 3.5 µM: 87.8%

## CCn1c(C(C)(C)NS(=O)(=O)c2ccc(C(N)=O)nc2)nc2ccc(C(F)(F)F)cc21 [Example 141, 5-(N-(2-(1-Ethyl-6-(trifluoromethyl)-1H-benzo[d]imidazol-2-yl)propan-2-yl)sulfamoyl)picolinamide]
  inhibition at 3.5 µM: 82.6%

## CCn1c([C@@H](C)NS(=O)(=O)c2ccc(C#N)nc2)nc2cnc(C3CC3)cc21 [Example 173, 6-Cyano-pyridine-3-sulfonic acid [1-(6-cyclopropyl-1-ethyl-1H-imidazo[4,5-c]pyridin-2-yl)-ethyl]-amide]
  inhibition at 3.5 µM: 81.9%

## CCn1c([C@@H](C)NS(=O)(=O)c2cnn(C(C)C)c2C)nc2ccc(C(F)(F)F)cc21 [Example 118, N-{(1R)-1-[1-Ethyl-6-(trifluoromethyl)-1H-benzimidazol-2-yl]ethyl}-1-isopropyl-5-methyl-1H-pyrazole-4-sulfonamide]
  inhibition at 3.5 µM: 78%

## CCn1c([C@@H](C)NS(=O)(=O)c2ccc(C#N)cc2)nc2ncc(C(F)(F)F)cc21 [Example 180, 4-Cyano-N-{(1R)-1-[1-ethyl-6-(trifluoromethyl)-1H-imidazo[4,5-b]pyridin-2-yl]ethyl}benzenesulfonamide]
  inhibition at 3.5 µM: 91.1%

## CCn1c(C(C)NS(=O)(=O)c2ccc(Cl)cc2)nc2cnc(C(F)(F)F)nc21 (centres unmarked) [Example 96, 4-chloro-N-{1-[9-ethyl-2-(trifluoromethyl)-9H-purin-8-yl]ethyl}benzenesulfonamide]
[1]
  inhibition at 3.7 µM: 81.7%

## CCn1c(C(C)(C)NS(=O)(=O)c2ccc(C#N)nc2)nc2cnc(C(F)(F)F)cc21 [Example 155, 6-Cyano-N-(2-(1-ethyl-6-(trifluoromethyl)-1H-imidazo[4,5-c]pyridin-2-yl)propan-2-yl)pyridine-3-sulfonamide]
  inhibition at 3.5 µM: 78.9%
